# Literature values as cited in patent publication EP2382994A1, “Ligand targeted nanocapsules for the delivery of RNAi and other agents” (Cattaneo, Maurizio Victor, priority 2010, dated 2011).
# Experiments:
# [1] = systemic delivery of 20 mg DOX; Tang et al. 2007
smiles,measurement,setting,value
"COc1cccc2c1C(=O)c1c(O)c3c(c(O)c1C2=O)C[C@@](O)(C(=O)CO)C[C@@H]3O[C@H]1C[C@H](N)[C@H](O)[C@H](C)O1 [DOX, Doxorubicin]","lethal toxicity, time of treatment",[1],≤ 8 days
same,clinical efficacy in melanoma,advanced stage melanoma,essentially ineffective
